Laboratory results taken from patent US6479435B1, “Diaryl ethers and processes for their preparation and herbicidal and desiccant compositions containing them” (ISK Americas Incorporated, priority 1997, dated 2002).

Columns and labels:
Type in all cases: in vivo
[1] = test system: large crabgrass (Digitaria sanguinalis, DIGSA); experiment: Pre-emerge greenhouse herbicide test, phytotoxicity rating; details: 14 days after application, rating scale 0-100
Summary of the method: (§1)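 Seeds sown in sandy loam one day before track-sprayer application of acetone solutions at 125–1000 g ai/ha (187 l/ha), then surface-watered to incorporate and bottom-watered. Injury scored visually at 14 days on a 0–100 scale (0 no damage, 100 complete death).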

[2] = test system: ivyleaf morningglory (Ipomoea hederacea, IPOHE); experiment: as above; details: 14 days after application, rating scale 0-100
Summary of the method: as §1

[3] = test system: green foxtail (Setaria viridis, SETVI); experiment: as above; details: 14 days after application, rating scale 0-100
Summary of the method: as §1

[4] = test system: Johnsongrass (Sorghum halepense, SORHA); experiment: as above; details: 14 days after application, rating scale 0-100
Summary of the method: as §1

[5] = test system: redroot pigweed (Amaranthus retroflexus, AMARE); experiment: as above; details: 14 days after application, rating scale 0-100
Summary of the method: as §1

[6] = test system: velvetleaf (Abutilon theophrasti, ABUTH); experiment: as above; details: 14 days after application, rating scale 0-100
Summary of the method: as §1

[7] = test system: barnyardgrass (Echinochloa crusgalli, ECHCG); experiment: as above; details: 14 days after application, rating scale 0-100
Summary of the method: as §1

[8] = test system: sicklepod (Cassia obtusifolia, CASOB); experiment: as above; details: 14 days after application, rating scale 0-100
Summary of the method: as §1

[9] = test system: lambsquarters (Chenopodium album, CHEAL); experiment: as above; details: 14 days after application, rating scale 0-100
Summary of the method: as §1

[10] = test system: common ragweed (Ambrosia artemisiifolia L., AMBEL); experiment: as above; details: 14 days after application, rating scale 0-100
Summary of the method: as §1

[11] = test system: large crabgrass (Digitaria sanguinalis, DIGSA); experiment: Post-emerge greenhouse herbicide test, phytotoxicity rating; details: 14 days after application
Summary of the method: (§2)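 Plants at the 2-3 leaf stage, sown 8-21 days earlier, were track-sprayed post-emergence with compound in acetone plus 0.25% v/v non-ionic surfactant at 63-1000 g ai/ha (187 l/ha). Damage was rated at 14 days on a 0-100 scale (0 none, 100 all plants dead), for both crop injury and weed control.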

[12] = test system: ivyleaf morningglory (Ipomoea hederacea, IPOHE); experiment: as above; details: 14 days after application
Summary of the method: as §2

[13] = test system: green foxtail (Setaria viridis, SETVI); experiment: as above; details: 14 days after application
Summary of the method: as §2

[14] = test system: Johnsongrass (Sorghum halepense, SORHA); experiment: as above; details: 14 days after application
Summary of the method: as §2

[15] = test system: redroot pigweed (Amaranthus retroflexus, AMARE); experiment: as above; details: 14 days after application
Summary of the method: as §2

[16] = test system: velvetleaf (Abutilon theophrasti, ABUTH); experiment: as above; details: 14 days after application
Summary of the method: as §2

[17] = test system: barnyardgrass (Echinochloa crusgalli, ECHCG); experiment: as above; details: 14 days after application
Summary of the method: as §2

[18] = test system: sicklepod (Cassia obtusifolia, CASOB); experiment: as above; details: 14 days after application
Summary of the method: as §2

[19] = test system: lambsquarters (Chenopodium album, CHEAL); experiment: as above; details: 14 days after application
Summary of the method: as §2

[20] = test system: soybean (Glycine max L., var. Pella 86, SOY); experiment: Post-emerge greenhouse test, crop damage rating; details: 14 days after application
Summary of the method: as §2

[21] = test system: field corn (Zea mays L., var. Dekalb 535, CORN); experiment: Pre-emerge greenhouse test, crop damage rating; details: 14 days after application, rating scale 0-100
Summary of the method: as §1

[22] = test system: upland rice (Oryza sp., var.Tebonnet, RICE); experiment: Pre-emerge greenhouse test, crop damage rating; details: 14 days after application, rating scale 0-100
Summary of the method: as §1

[23] = test system: common ragweed (Ambrosia artemisiifolia L., AMBEL); experiment: Post-emerge greenhouse herbicide test, phytotoxicity rating; details: 14 days after application
Summary of the method: as §2

[24] = test system: soybean (Glycine max L., var. Pella 86, SOY); experiment: Pre-emerge greenhouse test, crop damage rating; details: 14 days after application, rating scale 0-100
Summary of the method: as §1

[25] = test system: field corn (Zea mays L., var. Dekalb 535, CORN); experiment: Post-emerge greenhouse test, crop damage rating; details: 14 days after application
Summary of the method: as §2

[26] = test system: upland rice (Oryza sp., var.Tebonnet, RICE); experiment: Post-emerge greenhouse test, crop damage rating; details: 14 days after application
Summary of the method: as §2

CN1CC(=O)N(c2cc(Oc3ncccn3)c(Cl)cc2F)C1=O [Compound 8-3] was tested, and the “phytotoxicity rating DIGSA” value ([1]; 125 g ai/ha) was 0, the “phytotoxicity rating DIGSA” value ([1]; 500 g ai/ha) was 90 and the “phytotoxicity rating IPOHE” value ([2]; 125 g ai/ha) was 10. For the same compound, the “phytotoxicity rating IPOHE” value ([2]; 500 g ai/ha) was 60, the “phytotoxicity rating SETVI” value ([3]; 125 g ai/ha) was 0 and the “phytotoxicity rating SETVI” value ([3]; 500 g ai/ha) was 70. For the same compound, the “phytotoxicity rating SORHA” value ([4]; 125 g ai/ha) was 0, the “phytotoxicity rating SORHA” value ([4]; 500 g ai/ha) was 40 and the “phytotoxicity rating AMARE” value ([5]; 125 g ai/ha) was 10. The “phytotoxicity rating AMARE” value ([5]; 500 g ai/ha) was 100, the “phytotoxicity rating ABUTH” value ([6]; 125 g ai/ha) was 20 and the “phytotoxicity rating ABUTH” value ([6]; 500 g ai/ha) was 70. The “phytotoxicity rating ECHCG” value ([7]; 125 g ai/ha) was 0, the “phytotoxicity rating ECHCG” value ([7]; 500 g ai/ha) was 10 and the “phytotoxicity rating CASOB” value ([8]; 125 g ai/ha) was 0. The “phytotoxicity rating CASOB” value ([8]; 500 g ai/ha) was 0, the “phytotoxicity rating CHEAL” value ([9]; 125 g ai/ha) was 80 and the “phytotoxicity rating CHEAL” value ([9]; 500 g ai/ha) was 100. The “phytotoxicity rating AMBEL” value ([10]; 125 g ai/ha) was 20, the “phytotoxicity rating AMBEL” value ([10]; 500 g ai/ha) was 60 and the “DIGSA phytotoxicity rating (0-100)” value ([11]; 63 g al/ha) was 0. For the same compound, the “DIGSA phytotoxicity rating (0-100)” value ([11]; 500 g al/ha) was 0, the “IPOHE phytotoxicity rating (0-100)” value ([12]; 63 g al/ha) was 60 and the “IPOHE phytotoxicity rating (0-100)” value ([12]; 500 g al/ha) was 90. For the same compound, the “SETVI phytotoxicity rating (0-100)” value ([13]; 63 g al/ha) was 0, the “SETVI phytotoxicity rating (0-100)” value ([13]; 500 g al/ha) was 0 and the “SORHA phytotoxicity rating (0-100)” value ([14]; 63 g al/ha) was 0. The “SORHA phytotoxicity rating (0-100)” value ([14]; 500 g al/ha) was 0, the “AMARE phytotoxicity rating (0-100)” value ([15]; 63 g al/ha) was 20 and the “AMARE phytotoxicity rating (0-100)” value ([15]; 500 g al/ha) was 75. The “ABUTH phytotoxicity rating (0-100)” value ([16]; 63 g al/ha) was 10, the “ABUTH phytotoxicity rating (0-100)” value ([16]; 500 g al/ha) was 75 and the “ECHCG phytotoxicity rating (0-100)” value ([17]; 63 g al/ha) was 0. The “ECHCG phytotoxicity rating (0-100)” value ([17]; 500 g al/ha) was 0, the “CASOB phytotoxicity rating (0-100)” value ([18]; 63 g al/ha) was 0 and the “CASOB phytotoxicity rating (0-100)” value ([18]; 500 g al/ha) was 0. The “CHEAL phytotoxicity rating (0-100)” value ([19]; 63 g al/ha) was 50, the “CHEAL phytotoxicity rating (0-100)” value ([19]; 500 g al/ha) was 85 and the “SOY crop damage rating (0-100)” value ([20]; 63 g al/ha) was 10. For the same compound, the “SOY crop damage rating (0-100)” value ([20]; 500 g al/ha) was 50, the “crop damage rating CORN” value ([21]; 125 g ai/ha) was 0 and the “crop damage rating CORN” value ([21]; 500 g ai/ha) was 5. For the same compound, the “crop damage rating RICE” value ([22]; 125 g ai/ha) was 0, the “crop damage rating RICE” value ([22]; 500 g ai/ha) was 30 and the “AMBEL phytotoxicity rating (0-100)” value ([23]; 63 g al/ha) was 20. The “AMBEL phytotoxicity rating (0-100)” value ([23]; 500 g al/ha) was 60, the “crop damage rating SOY” value ([24]; 125 g ai/ha) was 0 and the “crop damage rating SOY” value ([24]; 500 g ai/ha) was 10. For the same compound, the “CORN crop damage rating (0-100)” value ([25]; 63 g al/ha) was 0, the “CORN crop damage rating (0-100)” value ([25]; 500 g al/ha) was 0 and the “RICE crop damage rating (0-100)” value ([26]; 63 g al/ha) was 0. For the same compound, the “RICE crop damage rating (0-100)” value ([26]; 500 g al/ha) was 0.
